28 compounds from patent publication US20180230127A1 (PFIZER INC., priority 2015, published 2018) can be followed below.

Where a name gives a salt, the structure may show the parent alone.

For the test, the target named is T1, human IRAK4 kinase domain (aa 154-460) (Homo sapiens, UniProt Q9NWZ3).
T1 construct: human IRAK4 kinase domain (aa 154-460; GenBank ID AF445802)
T1 sequence (Q9NWZ3 154-460): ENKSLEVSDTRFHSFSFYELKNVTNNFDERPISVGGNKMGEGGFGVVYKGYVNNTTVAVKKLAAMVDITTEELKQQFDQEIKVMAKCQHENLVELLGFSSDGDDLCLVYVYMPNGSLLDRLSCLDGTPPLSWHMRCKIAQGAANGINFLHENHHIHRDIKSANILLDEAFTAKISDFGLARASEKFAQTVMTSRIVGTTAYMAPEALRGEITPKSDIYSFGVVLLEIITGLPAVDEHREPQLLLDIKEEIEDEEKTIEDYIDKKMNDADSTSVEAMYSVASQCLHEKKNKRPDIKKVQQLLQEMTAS
The test can be described thus: IRAK4 Enzymatic DELFIA Assay. It is filed as biochemical. To be noted: 0.6 mM ATP (KM); 114 pM IRAK4 kinase domain; 200 nM substrate; 5% DMSO. As for the experimental part: IRAK4 Enzymatic DELFIA Assay.
This is an in vitro assay to measure IRAK4 enzymatic activity utilizing the DELFIA (Dissociation-Enhanced Lanthanide Fluorescent Immunoassay, Perkin-Elmer) platform, with the human IRAK4 kinase domain (aa 154-460) construct to characterize IRAK4 inhibitor and control compounds at 0.6 mM ATP (KM). The final amount of enzyme in the assay is 114 pM IRAK4 kinase domain, final concentration of substrate is 200 nM, and final concentration of DMSO is 5%.
The test compound was solubilized in DMSO to a stock concentration of 30 mM. The dose response plates were prepared with a 2 mM primary compound concentration, and then diluted in DMSO in a four-fold series for a total of 10 data points. Compounds were prepared as a 20-fold multiple of the final in-assay concentration
To begin the assay, 45 μL of reaction mixture containing 20 mM HEPES pH=7.5, 5 mM MgCl2, 0.0025% Brij-35, […], 228 pM phosphorylated recombinant human IRAK4 kinase domain (aa 154-460; GenBank ID AF445802) were aliquoted into Ultra-Clear Polypropylene, 96-well, U-Bottom Plates (Corning Life Sciences). 5 μL of test compound from the dose-response plate was added to the reaction mixture and incubated for 15 minutes at room temperature. Then 50 μL of 20 mM HEPES pH=7.5, 5 mM MgCl2, 0.0025% Brij-35, 600 μM ATP, and 400 nM ERM-biotinylated peptide (AGAGRDKYKTLRQIR) were added to start the reaction. The reaction was incubated for 90 minutes at room temperature and stopped by the addition of 25 μL 0.5M EDTA.
100 μL of the reaction mixture was transferred to a streptavidin coated detection plate (EvenCoat Streptavidin Coated Plates, 96-Well, R&D Systems) and incubated for 30 minutes at room temperature. The plates were washed 4 times with 100 μL per well of PBS containing 0.05% Tween-20. Plates were then incubated with 50 μL per well of antibody cocktail of Anti-pERM antibody (Cell Signaling Technology) diluted 1:5000, plus Anti-Rabbit IgG EuN1 at 0.242 μg/ml (Perkin-Elmer Life Sciences) in a solution of 10 mM MOPS pH=7.5, 150 mM NaCl, 0.05% Tween-20, 0.02% NaN3, 1% BSA, 0.1% Gelatin for 45 minutes. The plates were washed 4× with 100 μL per well of PBS containing 0.05% Tween-20. Then 100 μL per well of DELFIA Enhancement Solution were added to the plate and then read on an EnVision Model 2103 using a 340 nm excitation wavelength and a 665 nm emission detection.
The term IC50 denotes the midpoint of a concentration-inhibition curve. Low values mean greater potency in that assay, high ones weaker potency in that assay. Regarding `CC(C)Oc1cc2c(O[C@@H]3CCCN(C(=O)C(C)(N)CO)C3)ccnc2cc1C(N)=O` (mixture of isomers) [Example 12, Racemic-4-{[(3R)-1-(2-amino-3-hydroxy-2-methylpropanoyl)piperidin-3-yl]oxy}-6-(propan-2-yloxy)quinoline-7-carboxamide formate], the IC50 worked out at 626 nM.
Next, `CC(C)Oc1cc2c(O[C@@H]3CCCN(C(=O)C(C)C#N)C3)ccnc2cc1C(N)=O` (mixture of isomers) [Example 34, 4-{[(3R)-1-(2-cyanopropanoyl)piperidin-3-yl]oxy}-6-(propan-2-yloxy)quinoline-7-carboxamide]: 926 nM; `CC(C)Oc1cc2c(O[C@H]3CCN(C(=O)CC#N)C3)nccc2cc1C(N)=O` [Example 1, 1-{[(3S)-1-(cyanoacetyl)pyrrolidin-3-yl]oxy}-7-(propan-2-yloxy)isoquinoline-6-carboxamide formate]: 53 nM; `CC(C)Oc1cc2c(O[C@@H]3CCN(C(=O)CC#N)C3)nccc2cc1C(N)=O` [Example 2, 1-{[(3R)-1-(cyanoacetyl)pyrrolidin-3-yl]oxy}-7-(propan-2-yloxy)isoquinoline-6-carboxamide formate]: 66 nM.
`CC(C)Oc1cc2c(O[C@H]3CCN(C(=O)CC#N)C[C@H]3F)nccc2cc1C(N)=O` [Example 3, 1-{[(3R,4S)-1-(cyanoacetyl)-3-fluoropiperidin-4-yl]oxy}-7-(propan-2-yloxy)isoquinoline-6-carboxamide formate]: 308 nM corresponded to half-maximal inhibition (IC50).
Next, `CC(C)Oc1cc2c(O[C@@H]3CCCN(C(=O)CO)C3)ccnc2cc1C(N)=O` [Example 4, 4-{[(3R)-1-(hydroxyacetyl)piperidin-3-yl]oxy}-6-(propan-2-yloxy)quinoline-7-carboxamide formate]: 13 nM.
The same measure for `CC(C)Oc1cc2c(O[C@@H]3CCCN(C(=O)C(F)F)C3)ccnc2cc1C(N)=O` [Example 5, 4-{[(3R)-1-(difluoroacetyl)piperidin-3-yl]oxy}-6-(propan-2-yloxy)quinoline-7-carboxamide formate]: 35 nM; for `CC(C)Oc1cc2c(O[C@@H]3CCCN(C(=O)CN)C3)ccnc2cc1C(N)=O` [Example 6, 4-{[(3R)-1-glycylpiperidin-3-yl]oxy}-6-(propan-2-yloxy)quinoline-7-carboxamide formate]: 348 nM; for `CC(C)Oc1cc2c(O[C@@H]3CCCN(C(=O)[C@H](C)N)C3)ccnc2cc1C(N)=O` [Example 7, 4-{[(3R)-1-(L-alanyl)piperidin-3-yl]oxy}-6-(propan-2-yloxy)quinoline-7-carboxamide formate]: 143 nM.
Next, `COCC(=O)N1CCC[C@@H](Oc2ccnc3cc(C(N)=O)c(OC(C)C)cc23)C1` [Example 8, 4-{[(3R)-1-(methoxyacetyl)piperidin-3-yl]oxy}-6-(propan-2-yloxy)quinoline-7-carboxamide formate]: 168 nM; `CC(C)Oc1cc2c(O[C@@H]3CCCN(C(=O)C(F)(F)F)C3)ccnc2cc1C(N)=O` [Example 9, 6-(propan-2-yloxy)-4-{[(3R)-1-(trifluoroacetyl)piperidin-3-yl]oxy}quinoline-7-carboxamide formate]: 263 nM; `CCC(=O)N1CCC[C@@H](Oc2ccnc3cc(C(N)=O)c(OC(C)C)cc23)C1` [Example 10, 4-{[(3R)-1-propanoylpiperidin-3-yl]oxy}-6-(propan-2-yloxy)quinoline-7-carboxamide formate]: 506 nM.
Regarding `CC(C)Oc1cc2c(O[C@@H]3CCCN(C(=O)c4cnco4)C3)ccnc2cc1C(N)=O` [Example 11, 4-{[(3R)-1-(1,3-oxazol-5-ylcarbonyl)piperidin-3-yl]oxy}-6-(propan-2-yloxy)quinoline-7-carboxamide formate], it took 560 nM to reach half-maximal inhibition (IC50).
Next, `CC(C)Oc1cc2c(O[C@@H]3CCCN(C(=O)[C@H](C)O)C3)ccnc2cc1C(N)=O` [Example 13, 4-({(3R)-1-[(2S)-2-hydroxypropanoyljpiperidin-3-yl}oxy)-6-(propan-2-yloxy)quinoline-7-carboxamide formate]: 751 nM; `CC(C)Oc1cc2c(O[C@@H]3CCCN(C(=O)c4c[nH]cn4)C3)ccnc2cc1C(N)=O` [Example 14, 4-{[(3R)-1-(1H-imidazol-4-ylcarbonyl)piperidin-3-yl]oxy}-6-(propan-2-yloxy)quinoline-7-carboxamide formate]: 856 nM; `CC(C)Oc1cc2c(O[C@@H]3CCCN(C(=O)C4(CN)CC4)C3)ccnc2cc1C(N)=O` [Example 15, 4-{[(3R)-1-{[1-(aminomethyl)cyclopropyl]carbonyl}piperidin-3-yl]oxy}-6-(propan-2-yloxy)quinoline-7-carboxamide formate]: 999 nM.
The same measure for `CC(C)Oc1cc2c(O[C@@H]3C[C@@H](C)N(C(=O)CC#N)C3)ccnc2cc1C(N)=O` [Example 16, 4-{[(3R,5R)-1-(cyanoacetyl)-5-methylpyrrolidin-3-yl]oxy}-6-(propan-2-yloxy)quinoline-7-carboxamide formate]: 110 nM; for `CC(C)Oc1cc2c(O[C@H]3CCN(C(=O)CC#N)[C@@H]3C)ccnc2cc1C(N)=O` [Example 17, 4-{[(2R,3S)-1-(cyanoacetyl)-2-methylpyrrolidin-3-yl]oxy}-6-(propan-2-yloxy)quinoline-7-carboxamide formate]: 111 nM.
The same measure for `CC(C)Oc1cc2c(O[C@H]3CCN(C(=O)CC#N)C[C@H]3F)ccnc2cc1C(N)=O` [Example 18, 4-{[(3R,4S)-1-(cyanoacetyl)-3-fluoropiperidin-4-yl]oxy}-6-(propan-2-yloxy)quinoline-7-carboxamide formate]: 660 nM.
Take `CC(C)Oc1cc2c(O[C@@H]3CCNC[C@H]3F)nccc2cc1C(N)=O` [Example 19, 1-{[(3R,4R)-3-fluoropiperidin-4-yl]oxy}-7-(propan-2-yloxy)isoquinoline-6-carboxamide]: it took 39 nM to reach half-maximal inhibition (IC50).
As for `CC(C)Oc1cc2c(O[C@@H]3CCNC[C@@H]3F)ccnc2cc1C(N)=O` [Example 20, 1-{[(3S.4R)-3-fluoropiperidin-4-yl]oxy}-7-(propan-2-yloxy)isoquinoline-6-carboxamide], half-maximal inhibition (IC50) was put at 150 nM.
In turn, `CC(C)Oc1cc2c(OC3CCNC3=O)nccc2cc1C(N)=O` (stereo not shown) [Example 21, 1-[(2-oxopyrrolidin-3-yl)oxy]-7-(propan-2-yloxy)isoquinoline-6-carboxamide] displayed an IC50 of 602 nM.
`COc1cc2c(O[C@@H]3CCCNC3)ccnc2cc1C(N)=O` [Example 22, 6-methoxy-4-[(3R)-piperidin-3-yloxy]quinoline-7-carboxamide hydrochloride] gave an IC50 of 428 nM.
Next, `NC(=O)c1cc2nccc(O[C@@H]3CCCNC3)c2cc1OC1CCC1` [Example 23, 6-(cyclobutyloxy)-4-[(3R)-piperidin-3-yloxy]quinoline-7-carboxamide]: 151 nM; `CC(C)Oc1cc2c(OC3CCNC3)ccnc2cc1C(N)=O` (stereo not shown) [Example 24, 6-(propan-2-yloxy)-4-(pyrrolidin-3-yloxy)quinoline-7-carboxamide]: 611 nM.
Next, `CC(C)Oc1cc2c(OC3CCNCC3)ccnc2cc1C(N)=O` [Example 25, 4-(piperidin-4-yloxy)-6-(propan-2-yloxy)quinoline-7-carboxamide]: 184 nM; `CC(C)Oc1cc2c(O[C@H]3CCNC3)ccnc2cc1C(N)=O` [Example 26, 6-(propan-2-yloxy)-4-[(3S)-pyrrolidin-3-yloxy]quinoline-7-carboxamide formate]: 950 nM.
The compound `CC(C)Oc1cc2c(OC3CCNC3=O)ccnc2cc1C(N)=O` (stereo not shown) [Example 27, 4-[(2-oxopyrrolidin-3-yl)oxy]-6-(propan-2-yloxy)quinoline-7-carboxamide] had an IC50 of 642 nM.
